Test results published in patent publication US20070203079A1, “Methods of using small molecule compounds for neuroprotection” (priority 2005, published 2007).
Where a name gives a salt, the structure may show the parent alone.

How the values were obtained:
Type in all cases: in vivo, C. elegans
[1] = test system: Pdat-1::GFP+Pdat-1::torsinA (ΔE) worms (mutant torsinA); assay: 6-OHDA dopaminergic neurodegeneration in worms with mutant torsinA
Description: (§1) C. elegans nematodes were grown at 25° C. on NGM plates as described by Brenner (Brenner, Genetics, 1974, 77: 71-94). Two transgenic C. elegans lines were used for primary screens of the Prestwick small molecule library. A transgenic worm line expressing Pdat-1::GFP; with both wild type (Pdat-1::torsinA) or mutant (Pdat-1:::torsinA(ΔE)). Torsin-A expresses a phenotype that results in visible neurodegeneration after treatment with 6-OHDA. Transgenic worms were plated on drug plates and progeny were studied for morphological changes in the 8 dopaminergic neurons present in C. elegans.
(§2) Drugs were administered to C. elegans according to a standard procedure (Rand and Johnson, Methods Cell Biol, 1995, 48: 187-204) by mixing the solubilized drug with the agar medium on which the worms are grown. […]
(§3) Age-synchronized worms were obtained by treating gravid adults with 2% sodium hypochlorite and 0.5M NaOH to isolate embryos (Lewis Fleming, 1995). […] The worms were then washed and spread onto NGM plates seeded with bacteria (OP50) and scored at time points ranging from 2 to 72 h after 6-OHDA exposure.
(§4) Immediately after 6-OHDA treatment, worms containing the transgenes were selected under a fluorescence dissecting microscope, based on the presence of GFP, and transferred to a fresh NGM plate seeded with OP50. […] For ease of analysis, only the four CEP DA neurons in the head of the worm were scored. […]

[2] = test system: protein misfolding and aggregation in transgenic worms; assay: Preventative assay of protein aggregation (drug from hatching to L2 stage); details: exposure from hatching to L2 stage; scored at L3 and young adult
Method in brief: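 Transgenic worms were raised on drug plates at 20° C from hatching to L2 (about 3 days), then moved to solvent control plates. Aggregates were counted in L3 worms 8 hours later and in young adults 32 hours later. Scaled effectiveness = […], with A as solvent-only worms, B as lifelong-drug worms and C as pre-L2-exposed worms.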

[3] = test system: Pdat-1::GFP+Pdat-1::α-synuclein+Pdat-1::torsinA worms; assay: α-synuclein toxicity assay, wt torsinA
Method in brief: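 C. elegans lines expressing GFP and α-synuclein in dopamine neurons, with wild-type or ΔE torsinA, exposed to compounds; readout is the share of worms keeping all 4 wild-type CEP dopamine neurons as 4-day adults.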

[4] = test system: Pdat-1::GFP+Pdat-1::torsinA worms (wt torsinA); assay: 6-OHDA dopaminergic neurodegeneration in worms with wt torsinA
Description: as §1, §2, §3, §4

C=N[C@@H](C(=O)N[C@@H]1C(=O)N2[C@@H]1SC(C)(C)[C@@H]2C(=O)O)c1ccccc1 [Compound 235, Metampicillin sodium salt]
neuroprotection against 6-OHDA insult [1]: not protected
preventative effect on protein aggregation [2]: seem to be beneficial
enhanced wild type DA neuron survival [3]: 30.3±7%
neuroprotection against 6-OHDA insult ([4]; listed as Metampicillin, sodium salt): provides neuroprotection
neuroprotection against 6-OHDA insult ([4]; listed as metampicillin sodium salt): only afforded in Pdat-1::GFP+Pdat-1::torsinA worms expressing wt torsinA
